# According to the supplement of paper PMC10307832:
# What was measured:
# Assay in all cases: relative viability (nuclei count vs DMSO), 5 days (fraction); higher = more cells survive
# [1] = compound: C[C@@H](N)c1ccc(C(=O)Nc2ccnc3[nH]ccc23)cc1 + CC1(C)CCC(c2ccc(Cl)cc2)=C(CN2CCN(c3ccc(C(=O)NS(=O)(=O)c4ccc(N[C@H](CCN5CCOCC5)CSc5ccccc5)c(S(=O)(=O)C(F)(F)F)c4)cc3)CC2)C1 [Navitoclax] (partner 0.5 µM)
# Procedure, shortened: (§1)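 Lung cancer cell lines, seeded in 1536-well plates, were treated the following day by pin tool with a single drug or with five library-drug doses (not always all listed) in √10 steps on top of a fixed anchor-drug dose. Cells were fixed and nuclei stained in one step after 5 days, and nuclei were counted. Relative viability is the nuclei count for treated wells divided by that for vehicle wells, reported as medians of duplicate plates.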
# [2] = compound: O[C@H]1CC[C@H](Nc2ncc3nc(Nc4c(F)cc(F)cc4F)n([C@H]4CCOC4)c3n2)CC1 [Tanzisertib] + NC(=O)Nc1cc(-c2cccc(F)c2)sc1C(=O)N[C@H]1CCCNC1 [AZD7762] (partner 0.2 µM)
# Procedure, shortened: as §1
# [3] = compound: O[C@H]1CC[C@H](Nc2ncc3nc(Nc4c(F)cc(F)cc4F)n([C@H]4CCOC4)c3n2)CC1 [Tanzisertib] + Nc1ncn([C@H]2C[C@H](O)[C@@H](CO)O2)c(=O)n1 [Decitabine] (partner 2 µM)
# Procedure, shortened: as §1
# [4] = compound: O[C@H]1CC[C@H](Nc2ncc3nc(Nc4c(F)cc(F)cc4F)n([C@H]4CCOC4)c3n2)CC1 [Tanzisertib] + O=C(CCCCCCC(=O)Nc1ccccc1)NO [Vorinostat] (partner 1 µM)
# Procedure, shortened: as §1
Cell Line,relative viability ([1]; first compound 0.04 µM),relative viability ([1]; first compound 0.1265 µM),relative viability ([1]; first compound 0.4 µM),relative viability ([1]; first compound 4 µM),relative viability ([2]; first compound 0.08 µM),relative viability ([2]; first compound 0.253 µM),relative viability ([2]; first compound 0.8 µM),relative viability ([2]; first compound 2.53 µM),relative viability ([2]; first compound 8 µM),relative viability ([3]; first compound 0.08 µM),relative viability ([3]; first compound 0.253 µM),relative viability ([3]; first compound 0.8 µM),relative viability ([3]; first compound 2.53 µM),relative viability ([3]; first compound 8 µM),relative viability ([4]; first compound 0.08 µM),relative viability ([4]; first compound 0.253 µM),relative viability ([4]; first compound 0.8 µM),relative viability ([4]; first compound 2.53 µM),relative viability ([4]; first compound 8 µM),relative viability ([1]; first compound 1.265 µM)
HCC-15,0.712,0.689,0.738,0.645,1.23,1.25,1.22,1.13,1,0.66,0.674,0.737,0.659,0.647,0.91,0.766,0.857,0.807,0.923,
NCI-H727,0.524,0.579,0.676,0.411,0.59,0.652,0.524,0.544,0.599,0.941,0.875,0.702,0.89,0.755,1.18,1.26,1.25,1.04,1.12,0.484
HOP-62,1.08,0.959,1.06,0.85,0.483,0.503,0.708,0.625,0.47,0.212,0.236,0.217,0.248,0.215,0.632,0.599,0.679,0.768,0.605,
NCI-H3122,1.05,1.01,0.981,0.989,1.13,1.03,1.03,0.981,0.993,0.43,0.409,0.412,0.366,0.439,1.37,1.09,0.932,1.09,1.12,0.976
NCI-H1395,1.04,1.32,1.11,0.876,0.439,0.399,0.382,0.394,0.425,0.798,0.726,0.747,0.737,0.72,0.642,1.13,0.768,0.72,0.481,
NCI-H647,0.978,1.19,0.942,0.762,0.675,0.549,0.546,0.534,0.18,0.437,0.329,0.334,0.457,0.578,0.486,0.569,0.549,0.661,1.1,
EKVX,0.914,1.15,1.32,0.807,0.68,0.795,0.612,0.65,0.535,0.371,0.356,0.41,0.323,0.324,0.711,0.691,0.852,0.741,0.676,1.07
NCI-H460,1.16,1.08,1.22,0.825,0.661,0.627,0.591,0.63,0.628,0.54,0.465,0.479,0.467,0.497,0.864,0.89,0.744,0.729,0.699,1.14
LCLC-97TM1,0.405,0.507,0.44,0.836,0.302,0.334,0.207,0.264,0.151,0.25,0.264,0.201,0.245,0.228,0.862,0.749,0.638,0.86,0.169,0.786
NCI-H1355,1.01,0.986,1.04,0.748,0.847,0.822,0.813,0.71,0.708,0.374,0.388,0.369,0.388,0.361,0.722,0.608,0.642,0.67,0.628,
NCI-H1666,1.05,1.21,1.09,1.17,0.939,0.905,0.848,0.9,0.684,0.766,0.714,0.658,0.704,0.679,1.03,0.988,1.11,1.01,1.05,1.19
EPLC-272H,1.14,1.26,1.26,0.975,0.352,0.324,0.175,0.175,0.176,0.43,0.366,0.43,0.381,0.353,0.515,0.35,0.487,0.483,0.358,
ChaGo-K-1,1.07,1.01,1.19,0.891,0.926,0.89,0.856,0.839,0.796,0.519,0.531,0.493,0.512,0.537,0.81,0.801,0.71,0.779,0.57,
NCI-H1651,1.07,1,1.11,1.11,0.507,0.464,0.43,0.426,0.378,0.615,0.66,0.474,0.591,0.537,0.575,0.603,0.513,0.517,0.549,1.26
HCC-44,0.979,0.99,1.15,0.698,0.987,1.05,0.997,1.01,1.15,0.94,0.978,0.998,0.975,0.955,1.22,1.16,1.19,1.19,1.25,0.946
PC-3 [JPC-3],0.833,0.866,0.907,0.798,0.81,0.937,0.844,0.733,0.679,0.836,0.787,0.803,0.801,0.737,0.835,1.18,1.04,0.748,0.445,0.897
